Measured values: patent publication US4607039A, “Quinoline derivatives which are 5-hydroxytryptamine antagonists” (Imperial Chemical Industries PLC, priority 1982, dated 1986)

Key:
[1] = Tolerance in the marmoset, oral; details: in vivo, read-out: oral doses tolerated (up to)
Protocol: (§1) No toxic effects or other undesirable effects have been observed with the compounds at doses at which they are active in the above-mentioned tests. Furthermore, as an indication of the lack of toxicity of a specific compound of the invention, namely 2-(2-dimethylamino-2-methylpropylthio)-4-methyl-3-phenylquinoline, that compound is tolerated in both the conscious dog and the marmoset at oral doses of up to 60 mg./kg.

[2] = Tolerance in the conscious dog, oral; details: in vivo, read-out: oral doses tolerated (up to)
Protocol: as §1

[3] = stated in U.S. Pat. No. 1,860,286; cited from earlier work

SMILES | MTD [1] | MTD [2] | antipyretic activity [3]
Cc1c(-c2ccccc2)c(SCC(C)(C)N(C)C)nc2ccccc12.O=C(O)/C=C/C(=O)O.O=C(O)/C=C/C(=O)O [Example 3, 2-(2-dimethylamino-2-methylpropylthio)-4-methyl-3-phenylquinoline difumarate] | ≥ 60 mg/kg | ≥ 60 mg/kg | 
CCN(CC)CCOc1nc2ccccc2cc1-c1ccccc1 [2-(2-diethylaminoethoxy)-3-phenylquinoline] |  |  | exhibits antipyretic activity
